Experimental data reported in publication PMC11364104, “Discovery of SARS-CoV-2 papain-like protease (PL^pro) inhibitors with efficacy in a murine infection model” (Science Advances, 2024).
Where two headings read alike, the source gives them in different places.

Tests used:
L-Type Ca (verapamil) = assay: CEREP ion channel-binding; conditions: 30 µM
[1] = test system: Nicotinic Ach Receptor (muscle); assay: CEREP ion channel-binding; conditions: 30 µM
CYP1A2 = CYP1A2 (Homo sapiens, UniProt P05177); assay: biochemical
Human Cathepsin D = biological target: T1, Human Cathepsin D (Homo sapiens, UniProt P07339); assay: biochemical
T1 construct: assay run at Reaction Biology Corporation

Rat pharmacokinetics = format: in vivo, Wistar-Hannover rat; conditions: for Vd: rat, iv, 1 mg/kg, read-out: Vdss
Description: Figure S1. Setting Up the Collaboration Workflow and Operations
Preclinical Pharmacokinetics Studies
All activities involving animals were carried out in accordance with federal, state, local and institutional guidelines governing the use of laboratory animals in research in AAALAC accredited facilities and were reviewed and approved by Pfizer’s or Bioduro’s Institutional Animal Care and Use committee.
Mouse pharmacokinetic studies were done at BioDuro Pharmaceutical Product Development Inc. (Shanghai, PRC); male C57BL6 mice were purchased from Vital River (Beijing, China) and were typically 7-9 weeks of age at the time of dosing. During the pharmacokinetic studies all animals were housed individually. Access to food and water was provided ad libitum (i.e., subjects were dosed in the fed state). Compounds were administered intravenously (iv) via tail vein (n=2) dosed as a solution (1 mg/kg, 3 mL/kg) or via oral gavage as a solution (10 mg/kg, 3 mL/kg and 30 mg/kg, 3mL/kg) or as a suspension (15 mg/kg, 10 mL/kg; 50 mg/kg, 10 mL/kg; and 150 mg/kg, 10mL/kg). Dosing solutions were prepared immediately before dosing. The composition of each dosing vehicle is provided in Tables S5 and S6. Isoflurane was administered as anesthesia at 1-2% dose prior to collecting blood samples. Serial blood samples were collected via the retroorbital capillary at predetermined timepoints after dosing. Animals were monitored for pain or distress throughout the study, with at least daily monitoring during normal husbandry prior to study start. At the completion of the study, animals were euthanized by overdose of inhaled carbon dioxide. Blood samples were collected into tubes containing K2EDTA and stored on ice until centrifugation to obtain plasma, which was stored frozen at - 20 °C or lower until bioanalysis.
Rat pharmacokinetic studies were done at BioDuro Pharmaceutical Product Development Inc. (Shanghai, PRC); jugular vein- cannulated male Wistar-Hannover rats were purchased
(1 picture or pasted object on this page, not shown here) […]
from Vital River (Beijing, China) and were typically 7-9 weeks of age at the time of dosing.
During the pharmacokinetic studies all animals were housed individually. Access to food and water was provided ad libitum (i.e., subjects were dosed in the fed state). In the instances where oral (po) dose was administered in the fed state, with ad libitum access to food and water. Compounds were administered intravenously (iv) via the tail vein (n = 2) dosed as a solution (1 mg/kg, 3 ml/kg) or via oral gavage as a solution (10 mg/kg, 10 ml/kg). Dosing solutions were prepared immediately before dosing. The composition of each dosing vehicle […]
Serial blood samples were collected via the jugular vein cannula at […]
centrifugation to obtain plasma, which was stored frozen at - 20 °C or lower.
Dog pharmacokinetic studies were done at Pfizer (Groton, CT). All procedures performed on beagle dogs were in accordance with regulations and established guidelines and were reviewed and approved by an Institutional Animal Care and Use Committee through an ethical review process. Male Beagle dogs were purchased from Marshall Bioresources (North Rose, NY); subjects 3 years of age were used in pharmacokinetics studies. For each study (n=2), compounds were dosed iv by cephalic vein as a solution (0.5 mg/kg, 1 mL/kg) or via oral gavage as a suspension (3 mg/kg, 5 mL/kg). In the instances where oral (po) dose was administered in the fed state, dogs were fed a couple hours before dosing. In the instances where the IV dose was administered in the fasted state, dogs were fasted over night and fed 4 hours post dose. Subjects were monitored for pain or distress throughout the study followed by at least daily monitoring while off study. The iv dosing vehicle was optimized such that the compounds were in solution and stable for at least 24 h. Serial blood samples were collected via the jugular vein at predefined time points post-dose. Blood […]

CYP2C9 = CYP2C9 (Homo sapiens, UniProt P11712); assay: biochemical
Cyclooxygenase 2 = biological target: T2, Cyclooxygenase 2 (Homo sapiens, UniProt P35354); assay: CEREP enzyme inhibition; format: biochemical
T2 construct: purchased Eurofins Cerep

Vero E6 cells = conditions: read-out: Mean CC50; n=3
Human Thrombin = biological target: T3, Human Thrombin (Homo sapiens, UniProt P00734); assay: biochemical
T3 construct: assay run at Reaction Biology Corporation

PPAR gamma (Binding) = biological target: T4, PPAR gamma (Binding) (Homo sapiens, UniProt P37231); assay: CEREP NHR-binding
T4 construct: purchased Eurofins Cerep

NMDA Receptor = assay: CEREP ion channel-binding; conditions: 30 µM
GABA Transporter = assay: CEREP transporters-binding; conditions: 30 µM
in vitro = conditions: dog, plasma
Lck Kinase = biological target: T5, Lck Kinase (Homo sapiens, UniProt P06239); assay: CEREP kinase inhibition; format: biochemical
T5 construct: purchased Eurofins Cerep

Human Cathepsin B = biological target: T6, Human Cathepsin B (Homo sapiens, UniProt P07858); assay: biochemical
T6 construct: assay run at Reaction Biology Corporation

[2] = biological target: T7, Angiotensin Converting Enzyme (Homo sapiens, UniProt P12821); assay: CEREP enzyme inhibition; format: biochemical
T7 construct: purchased Eurofins Cerep

[3] = Media binding for in vitro cell systems; format: in vitro ADME
hCoV-OC43_PLpro2 = hCoV-OC43_PLpro2 (Human coronavirus OC43, UniProt P0C6X6); assay: biochemical; parameters: species or system OC43-CoV
[4] = Wistar-Hannover, plasma, Male Wistar Hanover Rat, 1.0 mg/kg iv, solution, mean n=2
[5] = Wistar-Hannover, plasma, Male Wistar Hanover Rat, 10 mg/kg po, solution, mean n=2

hCoV-OC43_PLpro2, sequence (P0C6X6 1631-1892): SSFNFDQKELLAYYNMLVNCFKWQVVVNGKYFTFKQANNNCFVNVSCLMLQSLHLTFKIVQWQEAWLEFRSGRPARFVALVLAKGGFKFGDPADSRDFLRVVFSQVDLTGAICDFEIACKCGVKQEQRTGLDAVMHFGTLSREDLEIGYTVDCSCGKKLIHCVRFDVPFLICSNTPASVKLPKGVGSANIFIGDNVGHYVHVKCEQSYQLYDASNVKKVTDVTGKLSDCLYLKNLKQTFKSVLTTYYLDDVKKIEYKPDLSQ
T7 sequence (P12821 30-1306): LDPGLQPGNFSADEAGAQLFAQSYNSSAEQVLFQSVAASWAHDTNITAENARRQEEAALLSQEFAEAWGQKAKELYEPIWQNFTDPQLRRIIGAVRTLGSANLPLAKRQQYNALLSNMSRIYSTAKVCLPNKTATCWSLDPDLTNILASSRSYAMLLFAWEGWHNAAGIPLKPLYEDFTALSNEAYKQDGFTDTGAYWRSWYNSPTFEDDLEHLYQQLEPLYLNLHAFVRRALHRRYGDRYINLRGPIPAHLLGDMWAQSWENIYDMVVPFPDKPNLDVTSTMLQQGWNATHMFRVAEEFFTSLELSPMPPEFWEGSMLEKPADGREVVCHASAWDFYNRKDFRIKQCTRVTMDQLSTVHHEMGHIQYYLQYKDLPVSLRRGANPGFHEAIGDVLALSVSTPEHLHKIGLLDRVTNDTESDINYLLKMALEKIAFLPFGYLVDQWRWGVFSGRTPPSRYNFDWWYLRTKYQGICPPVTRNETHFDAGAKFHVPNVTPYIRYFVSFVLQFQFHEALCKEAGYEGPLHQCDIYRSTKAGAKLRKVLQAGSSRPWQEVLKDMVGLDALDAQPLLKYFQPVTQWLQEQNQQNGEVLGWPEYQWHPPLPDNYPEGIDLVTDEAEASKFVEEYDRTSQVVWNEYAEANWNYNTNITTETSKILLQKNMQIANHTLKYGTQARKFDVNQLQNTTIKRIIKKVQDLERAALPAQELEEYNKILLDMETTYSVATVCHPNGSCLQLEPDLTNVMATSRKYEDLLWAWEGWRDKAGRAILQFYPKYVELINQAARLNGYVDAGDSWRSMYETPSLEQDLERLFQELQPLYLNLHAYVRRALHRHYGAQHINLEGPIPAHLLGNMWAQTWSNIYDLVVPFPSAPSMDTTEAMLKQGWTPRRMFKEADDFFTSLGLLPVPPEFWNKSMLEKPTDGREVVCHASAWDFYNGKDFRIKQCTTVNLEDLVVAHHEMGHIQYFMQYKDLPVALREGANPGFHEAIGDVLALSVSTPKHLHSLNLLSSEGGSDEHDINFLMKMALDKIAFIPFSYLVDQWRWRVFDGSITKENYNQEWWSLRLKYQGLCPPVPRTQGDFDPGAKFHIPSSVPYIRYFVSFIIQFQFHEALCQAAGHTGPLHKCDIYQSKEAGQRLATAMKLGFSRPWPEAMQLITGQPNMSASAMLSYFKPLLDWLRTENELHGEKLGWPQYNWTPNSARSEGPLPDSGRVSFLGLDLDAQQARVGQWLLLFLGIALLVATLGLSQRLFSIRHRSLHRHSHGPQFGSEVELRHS
T5 sequence (P06239 whole entry): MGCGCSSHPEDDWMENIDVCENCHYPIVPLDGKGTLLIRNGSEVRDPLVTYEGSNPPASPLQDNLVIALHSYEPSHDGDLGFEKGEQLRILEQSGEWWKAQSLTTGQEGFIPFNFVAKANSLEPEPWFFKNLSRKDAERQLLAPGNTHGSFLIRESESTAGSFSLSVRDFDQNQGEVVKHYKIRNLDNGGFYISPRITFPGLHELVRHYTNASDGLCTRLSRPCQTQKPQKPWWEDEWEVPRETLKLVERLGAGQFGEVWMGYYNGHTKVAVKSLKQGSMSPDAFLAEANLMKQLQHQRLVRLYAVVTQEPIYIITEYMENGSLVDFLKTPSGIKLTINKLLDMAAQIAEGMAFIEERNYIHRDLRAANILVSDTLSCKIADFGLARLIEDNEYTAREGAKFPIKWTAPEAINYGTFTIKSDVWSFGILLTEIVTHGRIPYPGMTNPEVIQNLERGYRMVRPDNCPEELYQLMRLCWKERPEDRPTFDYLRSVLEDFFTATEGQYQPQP
CYP2C9, sequence (P11712 whole entry): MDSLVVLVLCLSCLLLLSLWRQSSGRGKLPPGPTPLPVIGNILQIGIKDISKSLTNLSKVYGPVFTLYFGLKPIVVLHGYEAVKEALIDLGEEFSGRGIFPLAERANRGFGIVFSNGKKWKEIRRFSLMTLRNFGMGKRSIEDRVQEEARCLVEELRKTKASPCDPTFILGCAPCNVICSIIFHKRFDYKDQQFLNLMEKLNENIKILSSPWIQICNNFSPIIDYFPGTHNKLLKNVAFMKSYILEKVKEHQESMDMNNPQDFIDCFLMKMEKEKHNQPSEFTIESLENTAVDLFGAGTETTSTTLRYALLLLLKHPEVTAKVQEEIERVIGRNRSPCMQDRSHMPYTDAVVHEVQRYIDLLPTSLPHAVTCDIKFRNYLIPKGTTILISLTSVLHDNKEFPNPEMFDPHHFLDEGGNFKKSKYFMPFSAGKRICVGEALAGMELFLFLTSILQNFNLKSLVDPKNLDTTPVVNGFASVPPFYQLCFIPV
T2 sequence (P35354 18-604): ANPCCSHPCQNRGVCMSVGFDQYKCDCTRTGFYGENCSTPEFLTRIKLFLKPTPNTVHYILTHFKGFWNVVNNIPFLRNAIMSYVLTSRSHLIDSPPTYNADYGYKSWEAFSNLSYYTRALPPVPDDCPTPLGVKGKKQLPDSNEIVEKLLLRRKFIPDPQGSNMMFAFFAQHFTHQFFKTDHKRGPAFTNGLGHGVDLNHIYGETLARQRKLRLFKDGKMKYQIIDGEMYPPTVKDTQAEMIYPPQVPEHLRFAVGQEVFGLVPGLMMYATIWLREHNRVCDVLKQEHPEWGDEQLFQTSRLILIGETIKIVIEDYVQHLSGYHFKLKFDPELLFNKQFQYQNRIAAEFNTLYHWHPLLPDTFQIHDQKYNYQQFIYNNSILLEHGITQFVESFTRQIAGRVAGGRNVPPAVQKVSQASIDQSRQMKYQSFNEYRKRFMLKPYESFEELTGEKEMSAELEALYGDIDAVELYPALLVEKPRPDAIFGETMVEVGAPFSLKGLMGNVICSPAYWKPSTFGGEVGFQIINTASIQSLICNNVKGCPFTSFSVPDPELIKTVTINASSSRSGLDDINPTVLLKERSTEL
T1 sequence (P07339 65-412): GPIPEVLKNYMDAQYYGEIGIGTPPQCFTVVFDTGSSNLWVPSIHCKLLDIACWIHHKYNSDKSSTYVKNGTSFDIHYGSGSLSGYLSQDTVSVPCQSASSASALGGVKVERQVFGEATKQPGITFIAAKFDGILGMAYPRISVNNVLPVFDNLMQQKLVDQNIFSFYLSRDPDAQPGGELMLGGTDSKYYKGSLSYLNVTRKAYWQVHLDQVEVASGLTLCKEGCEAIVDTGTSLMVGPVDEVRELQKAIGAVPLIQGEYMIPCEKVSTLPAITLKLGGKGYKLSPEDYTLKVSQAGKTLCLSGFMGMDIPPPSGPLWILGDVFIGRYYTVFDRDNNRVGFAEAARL
CYP1A2, sequence (P05177 whole entry): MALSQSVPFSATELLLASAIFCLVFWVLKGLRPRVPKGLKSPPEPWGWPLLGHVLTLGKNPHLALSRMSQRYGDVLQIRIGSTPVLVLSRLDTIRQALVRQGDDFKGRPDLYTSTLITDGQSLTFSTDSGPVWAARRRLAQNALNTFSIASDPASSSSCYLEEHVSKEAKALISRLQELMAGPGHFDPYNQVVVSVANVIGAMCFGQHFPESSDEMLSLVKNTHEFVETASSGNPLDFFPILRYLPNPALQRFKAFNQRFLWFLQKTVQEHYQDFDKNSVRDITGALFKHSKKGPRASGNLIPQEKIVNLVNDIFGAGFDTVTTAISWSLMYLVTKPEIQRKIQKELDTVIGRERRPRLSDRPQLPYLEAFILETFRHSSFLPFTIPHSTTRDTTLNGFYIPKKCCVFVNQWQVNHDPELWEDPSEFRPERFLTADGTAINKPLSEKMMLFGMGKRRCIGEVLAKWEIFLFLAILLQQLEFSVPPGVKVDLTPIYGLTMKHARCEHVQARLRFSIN
T4 sequence (P37231 whole entry): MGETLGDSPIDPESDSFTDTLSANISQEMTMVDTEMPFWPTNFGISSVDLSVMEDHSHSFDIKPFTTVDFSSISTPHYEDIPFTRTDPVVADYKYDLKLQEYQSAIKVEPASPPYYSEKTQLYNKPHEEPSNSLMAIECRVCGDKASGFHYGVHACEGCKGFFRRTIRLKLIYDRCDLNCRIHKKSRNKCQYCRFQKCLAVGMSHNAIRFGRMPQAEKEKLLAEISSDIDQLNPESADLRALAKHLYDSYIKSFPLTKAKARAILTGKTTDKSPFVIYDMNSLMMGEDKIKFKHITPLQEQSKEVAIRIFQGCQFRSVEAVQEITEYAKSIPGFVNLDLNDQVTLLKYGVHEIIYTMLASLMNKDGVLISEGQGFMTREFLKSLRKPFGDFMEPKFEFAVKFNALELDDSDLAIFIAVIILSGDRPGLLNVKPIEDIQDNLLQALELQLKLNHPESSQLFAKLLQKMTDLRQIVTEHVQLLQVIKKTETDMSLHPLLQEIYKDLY

With `Cc1ccc(N2CCN(C)CC2)cc1C(=O)NC1(c2cc(-c3cnn(C)c3)nc3ccccc23)CC1` [Compound 4] the “% inhibition” value (L-Type Ca (verapamil)) was -19%, the “% inhibition” value [1] was 2% and the IC50 (CYP1A2) was 72.2 µM. The IC50 (Human Cathepsin D) was over 100 µM, the “Oral F” value (Rat pharmacokinetics; Male Wistar Hanover Rat, 10 mg/kg po, solution, mean n=2) was 69.7% and the AUC(0-inf) (Rat pharmacokinetics; [4]) was 668 ng·h/mL. It also gave a half-life (Rat pharmacokinetics; [4]) of 3.59 h, a clearance (Rat pharmacokinetics; Wistar-Hannover, plasma, Male Wistar Hanover Rat, 1.0 mg/kg iv, solution, mean n=2, read-out: CLp) of 25.2 mL/min/kg and an AUC(0-inf) (Rat pharmacokinetics; [5]) of 4650 ng·h/mL. The Cmax (Rat pharmacokinetics; [5]) was 435 ng/mL, the Tmax (Rat pharmacokinetics; [5]) was 3 h and the half-life (Rat pharmacokinetics; [5]) was 3.19 h. It also gave a bioavailability (Rat pharmacokinetics; male, Wistar-Hannover, plasma, po, 10 mg/kg, rat (r), read-out: Oral F (%)) of 69.7%, a Vd (Rat pharmacokinetics; male, Wistar-Hannover, plasma, Male Wistar Hanover Rat, 1.0 mg/kg iv, solution, mean n=2) of 4.42 L/kg and a Vd (Rat pharmacokinetics; male, Wistar-Hannover, plasma, rat (r), intravenous) of 4.4 L/kg. For the same molecule, the IC50 (CYP2C9) was over 30 µM, the inhibition at 30 µM (Cyclooxygenase 2) was 36% and the CC50 (Vero E6 cells) was 78.7 µM. For the same molecule, the IC50 (Human Thrombin) was over 100 µM, the inhibition at 30 µM (PPAR gamma (Binding)) was 9% and the “% inhibition” value (NMDA Receptor) was -2%. For the same molecule, the “% inhibition” value (GABA Transporter) was -4%, the fraction unbound (in vitro) was 0.176 and the inhibition at 30 µM (Lck Kinase) was -1%. For the same molecule, the IC50 (Human Cathepsin B) was over 100 µM, the inhibition at 30 µM [2] was 14% and the fraction unbound ([3]; bovine, cell culture medium (2% HI-FBS in DMEM), media: 2% HI-FBS in DMEM, n = 4, read-out: Fu (CV)) was 0.749. For the same molecule, the fraction unbound ([3]; dNHBE medium, read-out: fraction unbound in the dNHBE medium) was 0.916, the Ki (hCoV-OC43_PLpro2) was over 10 µM and the “activity on OC43 PL^pro” value (hCoV-OC43_PLpro2) was “nearly inactive”.
